# Reference: ChEMBL document CHEMBL1201862, “PubChem BioAssay data set” (2004)
# Calls of active or inactive are those of the source.
# How the values were obtained:
# [1] = target: Glucose-6-phosphate 1-dehydrogenase (Homo sapiens, UniProt P11413); test: inhibition of Homo sapiens G6PD, dose series – biochemical, fluorescence, selectivity assay for P. falciparum G6PD inhibitor project, dose response (AID 504792); type: functional
# [2] = Counterscreen for activators of the function of SWI/SNF related, matrix associated, actin dependent regulator of chromatin, subfamily a, member 2 (SMARCA2, BRM): Luminescence-based cell-based high throughput dose response assay to identify non-selective compounds using the VP16 reporter assay.; type: functional
# [3] = target: SWI/SNF-related matrix-associated actin-dependent regulator of chromatin subfamily A member 2 (Homo sapiens, UniProt P51531); test: Luminescence-based cell-based high throughput dose response assay to identify activators of the function of SWI/SNF related, matrix associated, actin dependent regulator of chromatin, subfamily a, member 2 (SMARCA2, BRM).; type: functional
# [4] = loss of viability in HepG2 cells – cell-based, CellTiter-Glo, cherry-picked, cytotoxicity control for Shn3 inhibitor project, dose response (AID 624134); type: functional
# Galanin receptor type 3 = target: T1, Galanin receptor type 3 (Homo sapiens, UniProt O60755); test: Fluorescence-based cell-based primary high throughput dose response assay to identify antagonists of the Galanin Receptor 3 (GalR3).; type: functional
# T1 sequence (O60755 whole entry): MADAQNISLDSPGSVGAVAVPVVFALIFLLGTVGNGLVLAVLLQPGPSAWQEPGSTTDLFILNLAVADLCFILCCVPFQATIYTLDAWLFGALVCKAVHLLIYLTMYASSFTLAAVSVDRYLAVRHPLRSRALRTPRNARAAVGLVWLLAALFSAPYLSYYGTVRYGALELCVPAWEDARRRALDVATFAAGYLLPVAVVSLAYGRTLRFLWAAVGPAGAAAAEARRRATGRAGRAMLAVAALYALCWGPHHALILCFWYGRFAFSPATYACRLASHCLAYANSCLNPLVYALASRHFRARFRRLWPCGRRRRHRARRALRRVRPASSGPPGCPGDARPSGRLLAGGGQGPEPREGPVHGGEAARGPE
# [5] = non-specific 3'UTR reporter inhibition in Clone20-Shn3RL – cell-based, Renilla luciferase, cherry-picked, counter-screen for Shn3 inhibitor project, dose response (AID 624133); type: functional
# [6] = reduction of Shn3 3'UTR-driven luciferase in osteoblasts – cell-based, Clone20 osteoblasts, firefly luciferase, cherry-picked, dose response (AID 624132); type: functional;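 also: firefly luciferase luminescence from reporter carrying the Shn3 3'UTR in osteoblasts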
# [7] = target: T2, COUP transcription factor 2 (Homo sapiens, UniProt P24468); test: Luminescence-based cell-based high throughput dose response assay to identify inhibitors of COUP-TFII (NR2F2).; type: functional;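 also: HEK293 cells transiently cotransfected with COUP-TFII expression vector and reporter; luciferase reporter luminescence driven by COUP-TFII from the pX2-168 reporter plasmid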
# T2 sequence (P24468 whole entry): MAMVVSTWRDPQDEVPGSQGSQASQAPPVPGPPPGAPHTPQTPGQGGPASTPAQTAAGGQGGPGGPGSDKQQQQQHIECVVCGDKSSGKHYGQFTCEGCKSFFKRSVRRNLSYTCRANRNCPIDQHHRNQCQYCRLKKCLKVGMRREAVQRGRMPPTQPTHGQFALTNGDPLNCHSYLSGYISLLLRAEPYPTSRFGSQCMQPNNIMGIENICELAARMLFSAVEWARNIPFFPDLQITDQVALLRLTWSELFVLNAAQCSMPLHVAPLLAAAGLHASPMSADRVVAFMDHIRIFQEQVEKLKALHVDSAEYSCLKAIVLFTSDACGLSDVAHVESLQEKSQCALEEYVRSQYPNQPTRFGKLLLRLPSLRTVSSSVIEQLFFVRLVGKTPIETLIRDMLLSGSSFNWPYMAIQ
# cells [8] = type: functional, cell-based; settings: HEK-CNG
# [9] = target: ADP-ribosylation factor GTPase-activating protein 1 (Rattus norvegicus, UniProt Q62848); test: Fluorescence polarization-based biochemical high throughput dose response screening assay to identify inhibitors of ADP-ribosylation factor GTPase activating protein 1 (ARFGAP1).; type: functional
# Beta-galactosidase = Beta-galactosidase (Escherichia coli, UniProt Q8VNN2); test: Dose response counterscreen for EBI2 assay utilizing the enzyme, b-galactosidase.; type: functional
# Cytochrome P450 2C19 = Cytochrome P450 2C19 (Homo sapiens, UniProt P33261); test: Cytochrome panel assay with activity outcomes. Panel member name: p450-cyp2c19 Compounds with AC50 equal or less than 10 uM are considered active; type: functional; settings: read-out: AC50
# Cytochrome P450 2C9 = Cytochrome P450 2C9 (Homo sapiens, UniProt P11712)
# cells [10] = type: functional, cell-based
# cells [11] = type: functional, cell-based; remark: listed apart in the source
# [12] = target: T3, Trace amine-associated receptor 1 (Homo sapiens, UniProt Q96RJ0); test: Fluorescence-based cell-based high throughput dose response assay to identify agonists of the human trace amine associated receptor 1 (TAAR1).; type: functional
# T3 sequence (Q96RJ0 whole entry): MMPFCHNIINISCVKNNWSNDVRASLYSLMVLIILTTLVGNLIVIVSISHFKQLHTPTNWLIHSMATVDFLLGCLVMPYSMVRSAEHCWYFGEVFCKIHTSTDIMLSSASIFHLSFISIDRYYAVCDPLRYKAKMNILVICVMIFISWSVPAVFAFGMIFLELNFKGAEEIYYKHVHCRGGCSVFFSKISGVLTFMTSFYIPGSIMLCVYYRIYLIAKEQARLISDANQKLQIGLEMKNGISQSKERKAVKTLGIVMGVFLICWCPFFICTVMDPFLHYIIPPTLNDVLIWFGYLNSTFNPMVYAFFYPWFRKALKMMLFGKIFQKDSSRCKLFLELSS
# [13] = target: T3, Trace amine-associated receptor 1; test: Counterscreen for agonists of the human trace amine associated receptor 1 (hTAAR1): Fluorescence-based cell-based high throughput dose response assay to identify hTAAR1 agonist that also desensitize TAAR1 receptor response.; type: functional
# [14] = target: Ras and Rab interactor 1/Tyrosine-protein kinase ABL1 (Homo sapiens, UniProt P00519+Q13671); type: functional;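 also: biochemical TR-FRET dose-response test measuring inhibition of binding between Rin1 and Abl proteins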
# Protein Wnt-3a = Protein Wnt-3a (Mus musculus, UniProt P27467); test: antagonism of Wnt3a pathway luciferase reporter – Wnt-LIGHT cells, luminescence, selectivity assay for Gli-SUFU antagonist project, dose response (AID 651570); type: functional; settings: read-out: IC50_Mean;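 also: Wnt-LIGHT reporter cells stimulated with conditioned medium from Wnt3a-producing cells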
# [15] = HPDE-C7 pancreatic duct cell viability loss – fluorescence, HTS (AID 430); type: functional, cell-based; settings: Homo sapiens
# [16] = viability loss of HPDE-C7K cells – cell-based, fluorescence, HTS, primary screen (AID 431); type: functional; settings: Homo sapiens
# P388/ADR = test: cells; type: functional; settings: Mus musculus
# SN12K1 = test: cells; type: functional; settings: Homo sapiens
# P388 = test: cells; type: functional; settings: Mus musculus
# [17] = Luminescence Cell-Based Dose Retest to Confirm Inhibitors of Cancer Stem Cells. [Related pubchem assays (depositor defined):AID2717, AID2721]; type: functional; settings: Homo sapiens
# [18] = A2780 cell killing – plate reader, dry powder samples, cytotoxicity control, dose response (AID 743046); type: functional, cell-based
# [19] = OVCAR8 cell viability loss – plate reader, dry powder samples, PAX8 project, dose response (AID 743197); type: functional, cell-based; settings: OVCAR-8
# Paired box protein Pax-8 = Paired box protein Pax-8 (Homo sapiens, UniProt Q06710); test: PAX8 transcriptional activity inhibition in RMG-I – RMG-I cells, luciferase, cherry-pick, dose response (AID 687027); type: functional, cell-based;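 also: luciferase reporter driven by Pax8 target thyroperoxidase promoter measured by SteadyGlo luminescence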
# [20] = OVCAR-3 cell viability loss – plate reader, dry powder samples, PAX8 inhibitor project, dose response (AID 743044); type: functional, cell-based
# Vero = test: cells; type: functional, Chlorocebus sabaeus; settings: Chlorocebus sabaeus, Vero
# Sequence of Protein Wnt-3a (P27467 whole entry): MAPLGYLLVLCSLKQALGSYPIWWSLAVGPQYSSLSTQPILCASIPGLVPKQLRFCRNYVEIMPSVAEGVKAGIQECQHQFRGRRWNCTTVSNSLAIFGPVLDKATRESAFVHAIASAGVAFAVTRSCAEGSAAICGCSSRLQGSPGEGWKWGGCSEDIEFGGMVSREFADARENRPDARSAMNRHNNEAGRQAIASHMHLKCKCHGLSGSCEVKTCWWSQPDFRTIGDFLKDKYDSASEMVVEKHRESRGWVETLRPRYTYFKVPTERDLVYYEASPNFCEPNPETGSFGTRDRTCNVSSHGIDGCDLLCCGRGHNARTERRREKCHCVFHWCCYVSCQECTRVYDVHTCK
# Sequence of Ras and Rab interactor 1/Tyrosine-protein kinase ABL1 (P00519 whole entry): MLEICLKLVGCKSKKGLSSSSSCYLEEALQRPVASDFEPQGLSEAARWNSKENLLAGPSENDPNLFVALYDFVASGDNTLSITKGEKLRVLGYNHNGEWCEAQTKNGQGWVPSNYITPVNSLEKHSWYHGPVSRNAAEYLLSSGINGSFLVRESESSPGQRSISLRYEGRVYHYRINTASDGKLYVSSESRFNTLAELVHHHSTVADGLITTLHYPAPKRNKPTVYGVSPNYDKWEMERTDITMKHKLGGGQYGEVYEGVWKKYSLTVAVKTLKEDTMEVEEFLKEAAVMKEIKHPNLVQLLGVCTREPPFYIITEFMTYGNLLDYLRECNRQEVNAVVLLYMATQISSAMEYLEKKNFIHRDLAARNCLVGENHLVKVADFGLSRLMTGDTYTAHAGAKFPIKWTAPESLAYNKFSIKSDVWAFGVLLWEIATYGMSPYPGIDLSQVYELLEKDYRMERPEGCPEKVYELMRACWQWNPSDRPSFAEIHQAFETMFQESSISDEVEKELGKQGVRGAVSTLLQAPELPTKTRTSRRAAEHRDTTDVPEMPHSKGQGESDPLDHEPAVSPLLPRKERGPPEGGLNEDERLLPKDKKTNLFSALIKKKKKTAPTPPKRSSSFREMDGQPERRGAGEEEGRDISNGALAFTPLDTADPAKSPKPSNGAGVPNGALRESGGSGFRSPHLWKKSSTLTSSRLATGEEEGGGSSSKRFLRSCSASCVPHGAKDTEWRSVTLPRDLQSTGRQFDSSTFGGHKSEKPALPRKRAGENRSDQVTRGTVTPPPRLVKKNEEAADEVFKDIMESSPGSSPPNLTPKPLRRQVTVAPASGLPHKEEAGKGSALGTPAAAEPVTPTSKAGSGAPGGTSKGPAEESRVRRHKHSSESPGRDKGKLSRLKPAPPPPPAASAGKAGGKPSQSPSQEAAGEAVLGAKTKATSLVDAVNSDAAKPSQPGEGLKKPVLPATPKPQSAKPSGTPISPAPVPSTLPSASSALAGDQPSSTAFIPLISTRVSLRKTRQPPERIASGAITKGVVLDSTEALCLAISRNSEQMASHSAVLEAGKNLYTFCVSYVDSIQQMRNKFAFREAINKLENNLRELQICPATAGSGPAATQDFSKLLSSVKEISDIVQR
# Sequence of Ras and Rab interactor 1/Tyrosine-protein kinase ABL1 (Q13671 whole entry): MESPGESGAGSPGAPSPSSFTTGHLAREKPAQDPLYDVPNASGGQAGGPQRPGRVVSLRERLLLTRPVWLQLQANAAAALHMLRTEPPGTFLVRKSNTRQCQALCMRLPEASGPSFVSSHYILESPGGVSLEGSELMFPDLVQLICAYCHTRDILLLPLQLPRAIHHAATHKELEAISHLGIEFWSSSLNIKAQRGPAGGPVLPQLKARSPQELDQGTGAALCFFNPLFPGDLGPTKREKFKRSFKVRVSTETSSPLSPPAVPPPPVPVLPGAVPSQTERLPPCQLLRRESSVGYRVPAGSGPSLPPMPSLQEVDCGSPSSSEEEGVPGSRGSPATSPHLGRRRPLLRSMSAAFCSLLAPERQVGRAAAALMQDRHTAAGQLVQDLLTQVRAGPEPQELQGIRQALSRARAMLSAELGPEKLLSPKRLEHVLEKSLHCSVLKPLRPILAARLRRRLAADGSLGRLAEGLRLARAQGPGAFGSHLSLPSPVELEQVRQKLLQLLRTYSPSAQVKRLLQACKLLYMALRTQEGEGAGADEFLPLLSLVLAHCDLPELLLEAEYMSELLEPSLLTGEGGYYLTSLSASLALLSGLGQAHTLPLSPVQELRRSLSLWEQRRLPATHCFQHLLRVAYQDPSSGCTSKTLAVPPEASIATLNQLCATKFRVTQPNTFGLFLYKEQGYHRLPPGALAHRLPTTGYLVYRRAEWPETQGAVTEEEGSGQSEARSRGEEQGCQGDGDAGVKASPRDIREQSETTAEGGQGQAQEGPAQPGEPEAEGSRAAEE
# Sequence of SWI/SNF-related matrix-associated actin-dependent regulator of chromatin subfamily A member 2 (P51531 whole entry): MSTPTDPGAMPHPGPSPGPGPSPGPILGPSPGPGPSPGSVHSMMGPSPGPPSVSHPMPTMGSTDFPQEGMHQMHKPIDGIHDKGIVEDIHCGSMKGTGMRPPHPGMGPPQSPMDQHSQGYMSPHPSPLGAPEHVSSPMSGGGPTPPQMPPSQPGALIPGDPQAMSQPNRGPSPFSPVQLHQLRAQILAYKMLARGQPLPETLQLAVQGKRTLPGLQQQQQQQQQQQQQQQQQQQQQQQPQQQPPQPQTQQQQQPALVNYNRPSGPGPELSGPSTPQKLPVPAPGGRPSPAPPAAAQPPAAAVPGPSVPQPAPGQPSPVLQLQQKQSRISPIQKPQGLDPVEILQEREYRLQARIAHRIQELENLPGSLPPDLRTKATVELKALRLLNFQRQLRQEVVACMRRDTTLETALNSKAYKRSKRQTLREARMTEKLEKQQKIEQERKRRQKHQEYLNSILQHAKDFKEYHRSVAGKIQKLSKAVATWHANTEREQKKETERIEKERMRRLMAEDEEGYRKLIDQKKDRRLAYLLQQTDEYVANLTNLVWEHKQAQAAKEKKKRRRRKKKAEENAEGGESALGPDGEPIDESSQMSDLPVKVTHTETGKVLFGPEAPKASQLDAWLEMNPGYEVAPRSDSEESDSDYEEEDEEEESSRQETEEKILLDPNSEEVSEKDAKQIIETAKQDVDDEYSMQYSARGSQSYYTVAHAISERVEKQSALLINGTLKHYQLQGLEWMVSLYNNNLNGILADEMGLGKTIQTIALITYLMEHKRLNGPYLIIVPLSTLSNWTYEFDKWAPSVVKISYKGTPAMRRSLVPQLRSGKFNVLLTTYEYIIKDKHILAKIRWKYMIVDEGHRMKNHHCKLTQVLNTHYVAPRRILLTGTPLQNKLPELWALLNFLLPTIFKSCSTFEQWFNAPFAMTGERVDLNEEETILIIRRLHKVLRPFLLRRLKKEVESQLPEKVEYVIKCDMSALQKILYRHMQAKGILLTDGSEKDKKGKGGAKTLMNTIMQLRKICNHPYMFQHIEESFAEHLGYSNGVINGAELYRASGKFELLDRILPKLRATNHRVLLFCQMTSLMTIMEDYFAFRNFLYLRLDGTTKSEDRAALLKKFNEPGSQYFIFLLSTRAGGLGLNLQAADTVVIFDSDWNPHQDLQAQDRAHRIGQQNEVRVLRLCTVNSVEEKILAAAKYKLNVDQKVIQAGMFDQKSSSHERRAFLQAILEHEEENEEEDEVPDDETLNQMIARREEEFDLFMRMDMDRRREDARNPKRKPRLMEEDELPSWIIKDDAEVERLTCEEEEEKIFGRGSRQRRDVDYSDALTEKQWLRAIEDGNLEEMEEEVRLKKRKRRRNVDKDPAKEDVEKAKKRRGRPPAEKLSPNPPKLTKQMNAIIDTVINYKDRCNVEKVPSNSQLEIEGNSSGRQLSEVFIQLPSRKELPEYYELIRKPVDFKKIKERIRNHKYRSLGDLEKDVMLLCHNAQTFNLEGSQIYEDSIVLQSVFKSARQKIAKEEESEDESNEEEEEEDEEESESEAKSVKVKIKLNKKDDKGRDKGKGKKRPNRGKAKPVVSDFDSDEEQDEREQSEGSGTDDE
# Sequence of Beta-galactosidase (Q8VNN2 whole entry): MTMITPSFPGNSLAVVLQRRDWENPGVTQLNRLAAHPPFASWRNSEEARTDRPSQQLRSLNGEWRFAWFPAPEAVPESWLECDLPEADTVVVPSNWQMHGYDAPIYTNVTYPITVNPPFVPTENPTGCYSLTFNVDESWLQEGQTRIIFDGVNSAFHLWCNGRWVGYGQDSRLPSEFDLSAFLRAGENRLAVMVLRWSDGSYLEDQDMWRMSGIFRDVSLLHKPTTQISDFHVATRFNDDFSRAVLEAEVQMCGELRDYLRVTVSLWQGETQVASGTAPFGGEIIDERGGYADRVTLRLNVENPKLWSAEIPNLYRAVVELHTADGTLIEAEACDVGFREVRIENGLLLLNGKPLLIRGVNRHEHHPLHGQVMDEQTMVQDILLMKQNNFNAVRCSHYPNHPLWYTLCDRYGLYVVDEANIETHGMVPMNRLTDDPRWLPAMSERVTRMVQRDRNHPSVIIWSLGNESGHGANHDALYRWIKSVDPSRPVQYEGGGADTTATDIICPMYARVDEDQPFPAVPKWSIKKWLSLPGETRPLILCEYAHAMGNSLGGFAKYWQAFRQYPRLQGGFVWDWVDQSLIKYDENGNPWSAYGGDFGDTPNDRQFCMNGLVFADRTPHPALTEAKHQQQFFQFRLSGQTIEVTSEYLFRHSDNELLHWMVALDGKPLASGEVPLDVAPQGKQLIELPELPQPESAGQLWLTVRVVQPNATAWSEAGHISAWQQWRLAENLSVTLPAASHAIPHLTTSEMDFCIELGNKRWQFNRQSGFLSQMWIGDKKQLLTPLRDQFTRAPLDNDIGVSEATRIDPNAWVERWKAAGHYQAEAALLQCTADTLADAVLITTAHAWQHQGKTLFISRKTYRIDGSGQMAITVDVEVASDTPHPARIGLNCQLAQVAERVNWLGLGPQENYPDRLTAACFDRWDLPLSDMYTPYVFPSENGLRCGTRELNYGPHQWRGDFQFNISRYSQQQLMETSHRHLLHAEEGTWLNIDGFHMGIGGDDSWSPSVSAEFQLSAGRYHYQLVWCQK
compound,measurement,setting,value
Cc1ccc(/C=C/C(=O)NC2CCCCCCC2)o1,IC50,[1],> 80 µM (inactive)
same,EC50,[2],> 91.1 µM (inactive)
same,EC50,[3],> 91.1 µM (inactive)
CCCCCCn1c(NCC)nc2c1c(=O)n(C)c(=O)n2C,AC50,[4],2.55 µM (active)
same,IC50,Galanin receptor type 3,> 1.11 µM (active)
same,AC50,[5],9.18 µM (active)
same,AC50,[6],0.834 µM (active)
same,IC50,[7],9.46 µM (active)
same,EC50,cells [8],> 29.9 µM (inactive)
COC(=O)c1ccc(Nc2nc(-c3ccncc3)nc3ccccc23)cc1,IC50,[9],98.4 µM (inactive)
O=C(COc1ccc2ccccc2c1)N1CCN(C(=O)c2cccnc2)CC1,IC50,Beta-galactosidase,> 80 µM (inactive)
same,AC50,Cytochrome P450 2C19,15.8 µM (inconclusive)
same,AC50,Cytochrome P450 2C9,31.6 µM (inconclusive)
Oc1cnnc(Nc2ccccc2)n1,IC50,cells [10],> 29.9 µM (inactive)
same,EC50,cells [11],> 29.9 µM (inactive)
same,EC50,[12],4.6 µM (active)
same,IC50,[13],> 29.9 µM (inactive)
Cc1ccccc1-c1nc(CS(=O)(=O)CC(=O)NCCc2ccccc2)c(C)o1,IC50,cells [10],> 29.9 µM (inactive)
same,EC50,cells [11],> 29.9 µM (inactive)
same,EC50,[12],3.59 µM (active)
same,IC50,[13],8.58 µM (active)
O=C(O)c1ccc(CSc2nnc(-c3cccnc3)n2-c2ccc(Br)cc2)cc1,IC50,[14],11.8 µM (inactive)
CN(C)S(=O)(=O)N1CCN(CC(O)COc2ccc3cc(Br)ccc3c2)CC1 (configuration not stated),IC50,Beta-galactosidase,> 80 µM (inactive)
CN(Cc1ccc(OCC(O)CN2CCCCC2)cc1)Cc1ccnc2ccccc12 (configuration not stated),AC50,[4],4.07 µM (active)
same,AC50,[5],1.37 µM (active)
same,AC50,[6],1.21 µM (active)
same,IC50,Protein Wnt-3a,3.4 µM (active)
Cc1nnc(SCc2nc3ccccc3[nH]2)s1,IC50,[14],15.2 µM (inactive)
same,EC50,[15],> 20 µM (not active)
same,EC50,[16],> 20 µM (not active)
Cc1cc2c(ccc3c2no[n+]3[O-])nn1,IC50,Galanin receptor type 3,> 29.9 µM (inactive)
same,EC50,cells [8],> 29.9 µM (inactive)
N#Cc1c(N)sc2c1CCN(CCc1ccccc1)C2,IC50,cells [10],> 29.9 µM (inactive)
same,EC50,cells [11],> 29.9 µM (inactive)
same,EC50,[12],1.58 µM (active)
same,IC50,[13],9.09 µM (active)
Cc1ccc(NC(=O)COc2ccccc2C(N)=O)cc1S(=O)(=O)N1CCCCCC1,IC50,Protein Wnt-3a,9.3 µM (active)
C=C1C(=O)[C@]23C[C@H]1CCC2[C@]1(C)C(=O)CC[C@@](C)(C(=O)O)C1C[C@@H]3O (some centres not stated),EC50,[2],> 91.2 µM (inactive)
same,EC50,[3],> 91.2 µM (inactive)
CC[C@]12c3[nH]c4ccc(Cl)cc4c3CCN1C(=O)[C@@H](CC(=O)NCCCN(C)C)C[C@@H]2C(=O)N1CCN(C(=O)c2ccco2)CC1,IC50,[14],46.8 µM (inactive)
CSCCC(c1nnnn1C1CCCC1)N1CCC(n2c(O)nc3ccccc32)CC1 (configuration not stated),IC50,[14],26.1 µM (inactive)
CCOCCOc1ccc(OCCOCC)cc1,GI50,P388/ADR,1.45 µM (inactive)
same,GI50,SN12K1,15 µM (inactive)
same,GI50,P388,3.36 µM (inactive)
CSCC(CO)NC(=O)/C=C/c1c(C)[nH]c(=O)[nH]c1=O (configuration not stated),GI50,P388/ADR,> 875 µM (inactive)
same,GI50,SN12K1,518 µM (inactive)
same,GI50,P388,818 µM (inactive)
CCOC(=O)c1c(NC(=O)C(=O)N/N=C/c2ccccc2O)sc2c1CCCCC2,AC50,[17],2.31 µM (active)
same,IC50,Protein Wnt-3a,6.55 µM (active)
CC(C)=CC(=O)OC1C2C(C)=CC(O)C(O)C2(C)C2C3(O)OCC24C(CC(=O)OC14)C(C)C3O (configuration not stated),GI50,P388/ADR,1.97 µM (inactive)
same,GI50,SN12K1,0.0259 µM (active)
same,GI50,P388,0.0125 µM (active)
Nc1cc(S(=O)(=O)O)cc2cc(S(=O)(=O)O)c(/N=N/c3ccc(-c4ccc(/N=N/c5c(S(=O)(=O)O)cc6cc(S(=O)(=O)O)cc(N)c6c5O)cc4)cc3)c(O)c12,GI50,SN12K1,> 100 µM (inactive)
same,GI50,P388,> 100 µM (inactive)
CC(=O)NCCc1ccc(C(=O)COC(=O)c2cccs2)cc1,EC50,[2],> 91.1 µM (inactive)
same,EC50,[3],> 91.1 µM (inactive)
C[C@@H]1CCCCO[C@@H](CN(C)C(=O)NC2CCCCC2)[C@H](C)CN([C@H](C)CO)C(=O)c2cc(NS(=O)(=O)c3ccc(Cl)cc3)ccc2O1,AC50,[18],15.7 µM (active)
same,AC50,[19],> 70 µM (inactive)
same,AC50,Paired box protein Pax-8,7.57 µM (active)
same,AC50,[20],38.3 µM (active)
O=C(N[C@@H](Cc1cccnc1)C(=O)N1CCC[C@H]1C(=O)NCCc1ccccc1Cl)C1CCCC1,IC50,cells [10],> 29.9 µM (inactive)
same,EC50,cells [11],> 29.9 µM (inactive)
same,EC50,[12],2.91 µM (active)
same,IC50,[13],3.72 µM (active)
Fc1ccc(CN2CCN(c3ncc(Cc4ccccc4)cn3)CC2)c(Cl)c1,IC50,Galanin receptor type 3,1.06 µM (active)
same,IC50,[7],10.1 µM (inactive)
same,EC50,cells [8],> 29.9 µM (inactive)
N[C@@H](CSCSC[C@H](N)C(=O)O)C(=O)O,GI50,P388/ADR,> 225 µM (inactive)
same,GI50,SN12K1,> 225 µM (inactive)
same,GI50,P388,> 71.1 µM (inactive)
COc1ccc(OC)c(Cc2cnc3nc(N)nc(N)c3c2C)c1 [PIRITREXIM ISETHIONATE],CC50,Vero,0.37 µM (active)
same,IC50,Protein Wnt-3a,3.35 µM (active)
